{"source": "paper PMC8308836", "about": "“Albumin Nanoparticle Formulation for Heart-Targeted Drug Delivery: In Vivo Assessment of Congestive Heart Failure” (Pharmaceuticals, 2021)", "key": {"[1]": {"system": "rat model of congestive heart failure", "assay": "Serum safety and toxicity markers (liver and renal function)", "assay_type": "in vivo, female Lewis rats", "conditions": "CHF rats, i.v. injection; normal range 20–61 U/L", "procedure": "Briefly, rats were anesthetized using 5% isoflurane, intubated, and mechanically ventilated at 80 breaths/minute. Via a left thoracotomy (through the fourth intercostal space), the LAD coronary artery was permanently ligated 2 mm from its origin with a 7/0 polypropylene suture (Ethicon Inc., Somerville, NJ, USA). […] About 48 h after ligation of the artery, injections were performed using a 27-G needle. Rats were randomized into five groups: Group 1 (n = 5) received an intravenous injection of 1 c.c. saline (Control). […] Group 4 (n = 5) received 250 μL intravenous injection of empty NPs in the same concentration as Group 1. […] Various endpoint measurements were taken as described in subsequent paragraphs. At 5 days post injection, all rats were killed by euthanasia.\nBlood was collected via the jugular vein from the animals using a sterile 23 G/25 mm needle in the Microtainer® serum separator tubes (Becton Dickinson, Franklin Lakes, NJ, USA) for serum separation and in Plasma-EDTA tubes (Becton Dickinson, Franklin Lakes, NJ, USA) for plasma collection. The blood was allowed to clot at room temperature for 30 min and subsequently placed on ice until centrifugation. Serum was separated by low-speed centrifugation at 1500 rpm for 15 min at 4 °C and was frozen at −80 °C until analysis. […]"}, "[2]": {"conditions": "24 h post treatment; i.v. injection 50 μg/kg, CHF rats, mean ± SD (n = 3)", "procedure": "The surgery was performed in a blinded manner as previously mentioned [22, 38]. Briefly, rats were anesthetized using 5% isoflurane, intubated, and mechanically ventilated at 80 breaths/minute. Via a left thoracotomy (through the fourth intercostal space), the LAD coronary artery was permanently ligated 2 mm from its origin with a 7/0 polypropylene suture (Ethicon Inc., Somerville, NJ, USA). […] About 48 h after ligation of the artery, injections were performed using a 27-G needle. Rats were randomized into five groups: Group 1 (n = 5) received an intravenous injection of 1 c.c. saline (Control). […] Group 3 (n = 8) received 250 μL bolus intravenous injection of 50 μg/kg MRN Lactate [39, 40]. Group 4 (n = 5) received 250 μL intravenous injection of empty NPs in the same concentration as Group 1. […] Blood was collected 24 h post injection for milrinone quantification. […]\nThe milrinone in plasma samples was quantified using High Performance Liquid Chromatography (HPLC) LCMS-8060 (Shimadzu). […] All samples were reconstituted in 40 µL of mobile phase A and analyzed by LC-MS/MS. […] The gradient started at 95:5 A:B. Samples were quantified using the area under the curve (AUC) and a standard curve."}, "[3]": {"system": "IL-10", "assay": "Serum cytokine measurement by ELISA: IL-10", "assay_type": "in vivo, female Lewis rats", "conditions": "1-week post treatment; i.v. injection, CHF rats, mean ± SD (n = 5)", "method": "(§1) The cytokine analysis for levels of IL-6, IL-10, and tumor necrosis factor-alpha (TNF-α) was performed using commercially available ELISA kits (Abcam) according to the manufacturer’s instructions. Microtiter plates were precoated with a murine monoclonal antibody against the rat cytokine being measured. Standards of the analyte and serum samples were added in triplicate. The absorbance was read at 450 nm within 30 min of stopping the reaction and standard curves were plotted."}, "[4]": {"system": "TNF-α", "assay": "Serum cytokine measurement by ELISA: TNF-α", "assay_type": "in vivo, female Lewis rats", "conditions": "1-week post treatment; i.v. injection, CHF rats, mean ± SD (n = 5)", "method": "as §1"}, "[5]": {"assay": "Pharmacokinetics of milrinone in plasma after i.v. injection", "assay_type": "in vivo, female Lewis rats", "conditions": "MRN dose 50 μg/kg, rat", "excerpt": "Amrinone was used as an internal standard."}, "[6]": {"system": "rat model of congestive heart failure", "procedure": "Briefly, rats were anesthetized using 5% isoflurane, intubated, and mechanically ventilated at 80 breaths/minute. […] About 48 h after ligation of the artery, injections were performed using a 27-G needle. […] Group 3 (n = 8) received 250 μL bolus intravenous injection of 50 μg/kg MRN Lactate [39, 40]. […] Various endpoint measurements were taken as described in subsequent paragraphs.\nEchocardiographic examinations were performed under inhaled isoflurane anesthesia (2.5% in oxygen, 500–700 mL/min). Transthoracic echocardiography was performed for each rat as a baseline before the surgery, 48 h post surgery, 60 min post injection, 24 h post injection, 48 h post injection, and 1-week post injection. Echocardiograms were obtained with a commercially available system (Micromaxx P04224; SonoSite, Bothell, WA, USA), equipped with a linear probe 7–13 MHz 25 mm footprint turbo transducer (P06519.11; SonoSite). Briefly, LV end-diastolic diameters (LVEDD) and end-systolic diameters (LVESD) were measured with M-mode tracings between the anterior and posterior walls from the parasternal short-axis view just below the level of the papillary muscles of the mitral valve [13]. The time of end-diastole was defined as time of maximum diameter of the LV in one heart cycle. Accordingly, end-systole was defined as the minimum diameter. Following the American Society of Echocardiology leading-edge method, two images on average were obtained in each view and averaged over three consecutive cycles [41]. The left-ventricular end-diastolic volume (LVEDV) and left-ventricular end-systolic volume (LVESV) were measured using the Teichholz formula [13]."}, "[7]": {"system": "IL-6", "assay": "Serum cytokine measurement by ELISA: IL-6", "assay_type": "in vivo, female Lewis rats", "conditions": "1-week post treatment; i.v. injection, CHF rats, mean ± SD (n = 5)", "method": "as §1"}, "[8]": {"conditions": "2 h time point; i.v., MRN dose 50 μg/kg, rat, mean ± SD (n = 4)", "procedure": "The animals were randomized into three groups in a blinded manner. Group I (n = 6) was intravenously injected with 1 c.c. saline. […] Group III (n = 12) was intravenously injected with 250 μL of MRN Lactate containing 50 μg/kg MRN. Blood was collected from the jugular vein at the following timepoints: 0, 5, 15, 30, 45, 60, 120, and 360 min. The animals were euthanized by isoflurane/CO2. Organ tissues (heart, lungs, liver, and kidneys) were collected, washed, rinsed, and snap-frozen in liquid nitrogen."}, "[9]": {"conditions": "i.v. injection group, 48 h Post Ligation (before treatment)"}, "[10]": {"conditions": "i.v. injection group, Baseline—Pre-Ligation (before treatment)"}, "[11]": {"conditions": "i.v. injection, 50 μg/kg milrinone, 1-week Post Injection"}, "[12]": {"conditions": "i.v. injection, 50 μg/kg milrinone, 60 min Post Injection"}, "[13]": {"conditions": "i.v. injection, 50 μg/kg milrinone, 24 h Post Injection"}, "[14]": {"conditions": "i.v. injection, 50 μg/kg milrinone, 48 h Post Injection"}}, "note": "Read-outs that look alike come from different tables or passages of the source.", "data": [{"smiles": "CC(O)C(=O)O.Cc1[nH]c(=O)c(C#N)cc1-c1ccncc1", "note": "[MRN Lactate, milrinone lactate]", "values": [{"measurement": "Serum ALT level", "setting": "[1]", "result": "within the normal range"}, {"measurement": "milrinone detected in plasma", "setting": "[2]", "result": "0.3 ± 0.1", "unit": "ng/mL"}, {"measurement": "Serum IL-10 level", "setting": "[3]", "result": "146.1 ± 24.7", "unit": "pg/mL"}, {"measurement": "Serum TNF-α level", "setting": "[4]", "result": "17.1 ± 2.8", "unit": "pg/mL"}, {"measurement": "milrinone concentration in plasma", "setting": "[5]; 0 min", "result": 334.2, "unit": "ng/mL"}, {"measurement": "milrinone concentration in plasma", "setting": "[5]; 5 min, mean ± SD (n = 4)", "result": "203.5 ± 45.3", "unit": "ng/mL"}, {"measurement": "milrinone concentration in plasma", "setting": "[5]; 15 min, mean ± SD (n = 4)", "result": "75.4 ± 6.2", "unit": "ng/mL"}, {"measurement": "milrinone concentration in plasma", "setting": "[5]; 30 min, mean ± SD (n = 4)", "result": "72.6 ± 12.4", "unit": "ng/mL"}, {"measurement": "milrinone concentration in plasma", "setting": "[5]; 45 min, mean ± SD (n = 4)", "result": "22.9 ± 11.2", "unit": "ng/mL"}, {"measurement": "milrinone concentration in plasma", "setting": "[5]; 120 min, mean ± SD (n = 4)", "result": "4.1 ± 1.5", "unit": "ng/mL"}, {"measurement": "milrinone concentration in plasma", "setting": "[5]; 360 min, mean ± SD (n = 4)", "result": "1.6 ± 0.1", "unit": "ng/mL"}, {"measurement": "AUC0-t", "setting": "[5]; non-compartmental", "result": 104.3, "unit": "ng·h/mL"}, {"measurement": "AUC0-∞", "setting": "[5]; non-compartmental", "result": 106.7, "unit": "ng·h/mL"}, {"measurement": "CL (clearance)", "setting": "[5]; non-compartmental", "result": 7.83, "unit": "mL/min/kg"}, {"measurement": "MRT (mean residence time)", "setting": "[5]; non-compartmental", "result": 49.1, "unit": "min"}, {"measurement": "Vss (apparent volume of distribution at steady state)", "setting": "[5]; non-compartmental", "result": 0.38, "unit": "L/kg"}, {"measurement": "Vz (apparent volume of distribution at elimination)", "setting": "[5]; non-compartmental", "result": 0.73, "unit": "L/kg"}, {"measurement": "t1/2 (half-life of plasma)", "setting": "[5]; non-compartmental", "result": 64.7, "unit": "min"}, {"measurement": "Left Ventricular Ejection Fraction (LVEF)", "setting": "[6]; [9]", "result": "65.3 ± 2.3", "unit": "%"}, {"measurement": "Left Ventricular Fractional Shortening (LVFS)", "setting": "[6]; [9]", "result": "34.3 ± 2.7", "unit": "%"}, {"measurement": "Left Ventricular Ejection Fraction (LVEF)", "setting": "[6]; [10]", "result": "88.2 ± 1.8", "unit": "%"}, {"measurement": "Left Ventricular Fractional Shortening (LVFS)", "setting": "[6]; [10]", "result": "52.6 ± 2.7", "unit": "%"}, {"measurement": "Left Ventricular Ejection Fraction (LVEF)", "setting": "[6]; [11]", "result": "66.1 ± 4.2", "unit": "%"}, {"measurement": "Left Ventricular Fractional Shortening (LVFS)", "setting": "[6]; [11]", "result": "30.8 ± 2.8", "unit": "%"}, {"measurement": "Left Ventricular Ejection Fraction (LVEF)", "setting": "[6]; [12]", "result": "80.1 ± 3.3", "unit": "%"}, {"measurement": "Left Ventricular Fractional Shortening (LVFS)", "setting": "[6]; [12]", "result": "45.6 ± 3.2", "unit": "%"}, {"measurement": "Left Ventricular Ejection Fraction (LVEF)", "setting": "[6]; [13]", "result": "70.6 ± 3.6", "unit": "%"}, {"measurement": "Left Ventricular Fractional Shortening (LVFS)", "setting": "[6]; [13]", "result": "33.6 ± 3.9", "unit": "%"}, {"measurement": "Left Ventricular Ejection Fraction (LVEF)", "setting": "[6]; [14]", "result": "64.8 ± 4.3", "unit": "%"}, {"measurement": "Left Ventricular Fractional Shortening (LVFS)", "setting": "[6]; [14]", "result": "30.2 ± 3.9", "unit": "%"}, {"measurement": "Serum IL-6 level", "setting": "[7]", "result": "39.3 ± 2.7", "unit": "pg/mL"}, {"measurement": "MRN detected in heart", "setting": "[8]", "result": "2.00 ± 1.01", "unit": "ng/mL"}, {"measurement": "MRN detected in kidneys", "setting": "[8]", "result": "4.80 ± 0.6", "unit": "ng/mL"}, {"measurement": "MRN detected in liver", "setting": "[8]", "result": "2.44 ± 0.23", "unit": "ng/mL"}]}]}
